Source: patent US10076519B2 (CYTOKINETICS, INC., priority 2010, dated 2018)

Each compound was assayed on rabbit skeletal myofibrils (fast skeletal myofibrils) (assay: Activation of fast skeletal myofibrils (PUMA assay, PK/LDH-coupled ATPase at pCa25)). Conditions: AC1.4 determined according to the procedure of Example 39; reported as class symbols.
Type: biochemical
How it was run: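 ATPase activity of Triton-washed rabbit skeletal myofibrils, roughly 90% fast fibres, tracked by NADH loss at 340 nm through a PK/LDH-coupled ADP-regenerating system. Calcium set to 25% of maximal activity (pCa25), in PIPES 12 mM pH 6.8 with 2 mM MgCl2 and 1 mM DTT; AC1.4 reported.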

SMILES	Mean AC1.4
CC(C)(CNc1ccc(-c2nnn[nH]2)nn1)c1ccc(F)cc1 [(6-(1H-1,2,3,4-tetraazol-5-yl)pyridazin-3-yl)[2-(4-fluorophenyl)-2-methylpropyl]amine]	D (D=>20 uM)
CC(C)(CNc1ccc(-c2ccc3[nH]ncc3c2)nn1)c1ncccc1F [(6-(1H-indazol-5-yl)pyridazin-3-yl)[2-(3-fluoro(2-pyridyl))-2-methylpropyl]amine]	B (B=1-10 uM)
CS(=O)(=O)N(CC1(c2ncccc2F)CNC1)c1ccc(-c2ccc3[nH]ncc3c2)nn1 [(6-(1H-indazol-5-yl)pyridazin-3-yl){[3-(3-fluoro(2-pyridyl))azetidin-3-yl]methyl}(methylsulfonyl)amine]	D (D=>20 uM)
Fc1cccnc1C1(CNc2ccc(-c3ccc4[nH]ncc4c3)nn2)CCC1 [(6-(1H-indazol-5-yl)pyridazin-3-yl){[(3-fluoro(2-pyridyl))cyclobutyl]methyl}amine]	A (A=<1 uM)
COc1cccnc1C1(CNc2ccc(-c3ccc4[nH]ncc4c3)nn2)CCC1 [(6-(1H-indazol-5-yl)pyridazin-3-yl){[(3-methoxy(2-pyridyl))cyclobutyl]methyl}amine]	B (B=1-10 uM)
Fc1ccc(C2(CNc3ccc(-c4ccc5[nH]ncc5c4)nn3)CCC2)cc1 [(6-(1H-indazol-5-yl)pyridazin-3-yl){[(4-fluorophenyl)cyclo-butyl]methyl}amine]	A (A=<1 uM)
COc1ccnc(C2(CNc3ccc(-c4ccc5[nH]ncc5c4)nn3)CCC2)c1 [(6-(1H-indazol-5-yl)pyridazin-3-yl){[(4-methoxy(2-pyridyl))cyclobutyl]methyl}amine]	A (A=<1 uM)

Other lines, results leading:

Mean AC1.4	SMILES
A (A=<1 uM)	CC(C)(CNc1ccc(-c2cccc3[nH]ncc23)nn1)c1ccc(F)cc1 [(6-(1H-indazol-4-yl)pyridazin-3-yl)[2-(4-fluorophenyl)-2-methylpropyl]amine]
A (A=<1 uM)	CC(C)(CNc1ccc(-c2ccc3[nH]ncc3c2)nn1)c1ccc(F)cc1 [(6-(1H-indazol-5-yl)pyridazin-3-yl)[2-(4-fluorophenyl)-2-methylpropyl]amine]
A (A=<1 uM)	c1ccc(C2(CNc3ccc(-c4ccc5[nH]ncc5c4)nn3)CCC2)nc1 [(6-(1H-indazol-5-yl)pyridazin-3-yl)[(2-pyridylcyclobutyl)methyl]amine]
C (C=10-20 uM)	c1cnc(C2(CNc3ccc(-c4ccc5[nH]ncc5c4)nn3)CCC2)cn1 [(6-(1H-indazol-5-yl)pyridazin-3-yl)[(pyrazin-2-ylcyclobutyl)methyl]amine]
D (D=>20 uM)	Fc1cccnc1C1(CNc2ccc(-c3ccc4[nH]ncc4c3)nn2)CNC1 [(6-(1H-indazol-5-yl)pyridazin-3-yl){[3-(3-fluoro(2-pyridyl))azetidin-3-yl]methyl}amine]

Same assay, conditions: median AC1.4 class, procedure of Example 39

Mean AC1.4	SMILES
B (B=1-10 uM)	CC(C)(Nc1ccc(-c2ccc3[nH]ncc3c2)nn1)c1ccccc1 [(6-(1H-indazol-5-yl)pyridazin-3-yl)(1-methyl-1-phenylethyl)amine]
B (B=1-10 uM)	Fc1cccnc1C1(Nc2ccc(-c3ccc4[nH]ncc4c3)nn2)CCC1 [(6-(1H-indazol-5-yl)pyridazin-3-yl)[(3-fluoro(2-pyridyl))cyclobutyl]amine]
A (A=<1 uM)	Fc1ccc(C2(Nc3ccc(-c4ccc5[nH]ncc5c4)nn3)CCC2)cc1 [(6-(1H-indazol-5-yl)pyridazin-3-yl)[(4-fluorophenyl)cyclobutyl]amine]
B (B=1-10 uM)	Fc1cccnc1C1(CNc2ccc(-c3ccc4[nH]ncc4c3)nn2)CC(F)(F)C1 [(6-(1H-indazol-5-yl)pyridazin-3-yl){[3,3-difluoro-1-(3-fluoro(2-pyridyl))cyclobutyl]methyl}amine]

Same assay, conditions: median AC1.4 reported as class; procedure of Example 39

Mean AC1.4	SMILES
A (A=<1 uM)	NC1(C(=O)NCc2cnc(-c3ccc(NCC4(c5ncccc5F)CCC4)nn3)s2)COC1 [(3-aminooxetan-3-yl)-N-({2-[6-({[(3-fluoro(2-pyridyl))cyclobutyl]methyl}ami-no)pyridazin-3-yl](1,3-thiazol-5-yl)}methyl)carboxamide]
